Measurements: patent publication US20040142952A1, “Triazoloquinazoline and pyrazolotriazolopyrimidine derivatives, medicinal compositions, adenosine a3 receptor affinity agents, ocular tension lowering agents, preparations for preventing and treating glaucoma and method of lowering ocular tension” (priority 2001, published 2004)

SMILES | melting point
CCCCc1nc2nncc-2c2nc(-c3ccc(O)cc3)[nH]n12 [Example 12, 5-n-butyl-2-(4-hydroxyphenyl)pyrazolo[4,3-e]-1,2,4-triazolo[1,5-c]pyrimidine] | > 280 °C
CCCCc1nc2nncc-2c2nc(-c3ccc(OCCC)cc3)[nH]n12 [Example 14, 5-n-butyl-2-(4-propoxyphenyl)pyrazolo[4,3-e]-1,2,4-triazolo[1,5-c]pyrimidine] | 191 to 192 °C
CCCCc1nc2nncc-2c2nc(-c3cc(OC)c(OC)c(OC)c3)[nH]n12 [Example 15, 5-n-butyl-2-(3,4,5-trimethoxyphenyl)pyrazolo[4,3-e]-1,2,4-triazolo[1,5-c]pyrimidine] | 259 to 262 °C
CCCCc1nc2nncc-2c2nc(-c3ccc([N+](=O)[O-])cc3)[nH]n12 [Example 17, 5-n-butyl-2-(4-nitrophenyl)pyrazolo[4,3-e]-1,2,4-triazolo[1,5-c]pyrimidine] | 279 to 280.5 °C
CCCCc1nc2nncc-2c2nc(-c3cccnc3)[nH]n12 [Example 18, 5-n-butyl-2-(3-pyridyl)pyrazolo[4,3-e]-1,2,4-triazolo[1,5-c]pyrimidine] | 217 to 219 °C
CCCCc1nc2nncc-2c2nc(-c3ccco3)[nH]n12 [Example 19, 5-n-butyl-2-(2-furyl)pyrazolo[4,3-e]-1,2,4-triazolo[1,5-c]pyrimidine] | 253 to 254.5 °C
CCCCc1nc2nncc-2c2nc(-c3cccs3)[nH]n12 [Example 20, 5-n-butyl-2-(2-thienyl)pyrazolo[4,3-e]-1,2,4-triazolo[1,5-c]pyrimidine] | 214 to 216 °C
CCCCc1nc2ccccc2c2nc(-c3cc(OC)c(OC)c(OC)c3)nn12 [Example 37, 5-n-butyl-2-(3,4,5-trimethoxyphenyl)-1,2,4-triazolo[1,5-c]quinazoline] | 130 to 133 °C
CCCCc1nc2nncc-2c2nc(-c3ccccc3OC)[nH]n12 [Example 53, 5-n-butyl-2-(2-methoxyphenyl)pyrazolo[4,3-e]-1,2,4-triazolo[1,5-c]pyrimidine] | 157 to 160 °C
CCCCc1nc2nncc-2c2nc(-c3ccc(SC)cc3)[nH]n12 [Example 56, 5-n-butyl-2-(4-methylthiophenyl)pyrazolo[4,3-e]-1,2,4-triazolo[1,5-c]pyrimidine] | 204 to 205 °C
c1ccc(-c2nc3c4cnnc-4nc(-c4ccccc4)n3[nH]2)cc1 [Example 59, 2,5-diphenylpyrazolo[4,3-e]-1,2,4-triazolo[1,5-c]pyrimidine] | 272.5 to 275 °C
CCCc1nc2nncc-2c2nc(-c3ccc(C)cc3)[nH]n12 [Example 60, 2-(4-methylphenyl)-5-n-propylpyrazolo[4,3-e]-1,2,4-triazolo[1,5-c]pyrimidine] | 274 to 275 °C
CCc1nc2nncc-2c2nc(-c3ccc(OC)cc3)[nH]n12 [Example 63, 5-ethyl-2-(4-methoxyphenyl)pyrazolo[4,3-e]-1,2,4-triazolo[1,5-c]pyrimidine] | 274 to 277 °C
CCc1nc2nncc-2c2nc(-c3ccc(Cl)cc3)[nH]n12 [Example 64, 2-(4-chlorophenyl)-5-ethylpyrazolo[4,3-e]-1,2,4-triazolo[1,5-c]pyrimidine] | > 280 °C
CCc1nc2nncc-2c2nc(-c3ccc(C)cc3)[nH]n12 [Example 65, 5-ethyl-2-(4-methylphenyl)pyrazolo[4,3-e]-1,2,4-triazolo[1,5-c]pyrimidine] | > 280 °C
CCc1nc2ccccc2c2nc(-c3ccc(Br)cc3)nn12 [Example 66, 2-(4-bromophenyl)-5-ethyl-1,2,4-triazolo[1,5-c]quinazoline] | 197 to 198 °C
CCc1nc2ccccc2c2nc(-c3ccc(F)cc3)nn12 [Example 67, 5-ethyl-2-(4-fluorophenyl)-1,2,4-triazolo[1,5-c]quinazoline] | 195 to 196 °C
CCc1nc2ccccc2c2nc(-c3ccc(Cl)cc3)nn12 [Example 68, 2-(4-chlorophenyl)-5-ethyl-1,2,4-triazolo[1,5-c]quinazoline] | 197 to 198 °C
CCc1nc2ccccc2c2nc(-c3ccc(OC)cc3)nn12 [Example 71, 5-ethyl-2-(4-methoxyphenyl)-1,2,4-triazolo[1,5-c]quinazoline] | 167.5 to 168 °C
CCOc1ccc(-c2nc3c4ccccc4nc(CC)n3n2)cc1 [Example 72, 2-(4-ethoxyphenyl)-5-ethyl-1,2,4-triazolo[1,5-c]quinazoline] | 153 to 154 °C
CCCCc1nc2ccc(Cl)cc2c2nc(-c3ccc(F)cc3)nn12 [Example 74, 5-n-butyl-9-chloro-2-(4-fluorophenyl)-1,2,4-triazolo[1,5-c]quinazoline] | 147.5 to 150 °C
CCCCc1nc2cc(Cl)ccc2c2nc(-c3ccc(F)cc3)nn12 [Example 80, 5-n-butyl-8-chloro-2-(4-fluorophenyl)-1,2,4-triazolo[1,5-c]quinazoline] | 185.5 to 186.5 °C
CCc1nc2ccc(Cl)cc2c2nc(-c3ccc(Cl)cc3)nn12 [Example 86, 9-chloro-2-(4-chlorophenyl)-5-ethyl-1,2,4-triazolo[1,5-c]quinazoline] | 213 to 214 °C
CCCCCCc1nc2nncc-2c2nc(-c3ccccc3)[nH]n12 [Example 88, 5-n-hexyl-2-phenylpyrazolo[4,3-e]-1,2,4-triazolo[1,5-c]pyrimidine] | 207 to 208 °C

Other lines, results leading:

melting point | SMILES
143 to 144 °C | CCCc1nc2ccccc2c2nc(-c3ccccc3)nn12 [Example 21, 2-phenyl-5-propyl-1,2,4-triazolo[1,5-c]quinazoline]
104.5 to 105.55 °C | CCCCc1nc2ccccc2c2nc(-c3ccccc3Cl)nn12 [Example 24, 5-n-butyl-2-(2-chlorophenyl)-1,2,4-triazolo[1,5-c]quinazoline]
129 to 131 °C | CCCCc1nc2ccccc2c2nc(-c3cccc(Cl)c3)nn12 [Example 25, 5-n-butyl-2-(3-chlorophenyl)-1,2,4-triazolo[1,5-c]quinazoline]
106 to 108 °C | CCCCc1nc2ccccc2c2nc(-c3ccc(C(C)(C)C)cc3)nn12 [Example 29, 5-n-butyl-2-(4-t-butylphenyl)-1,2,4-triazolo[1,5-c]quinazoline]
106.5 to 107.5 °C | CCCCc1nc2ccccc2c2nc(-c3ccccc3OC)nn12 [Example 33, 5-n-butyl-2-(2-methoxyphenyl)-1,2,4-triazolo[1,5-c]quinazoline]
128 to 129 °C | CCCCc1nc2ccccc2c2nc(-c3ccc(OCCC)cc3)nn12 [Example 36, 5-n-butyl-2-(4-propoxyphenyl)-1,2,4-triazolo[1,5-c]quinazoline]
148.5 to 150 °C | CCCCc1nc2ccccc2c2nc(-c3ccc(N(C)C)cc3)nn12 [Example 38, 5-n-butyl-2-[4-(N,N-dimethylamino)phenyl]-1,2,4-triazolo[1,5-c]quinazoline]
194 to 195 °C | CCCCc1nc2ccccc2c2nc(-c3ccc([N+](=O)[O-])cc3)nn12 [Example 39, 5-n-butyl-2-(4-nitrophenyl)-1,2,4-triazolo[1,5-c]quinazoline]
140 to 141.5 °C | CCCCc1nc2ccccc2c2nc(-c3cccnc3)nn12 [Example 40, 5-n-butyl-2-(3-pyridyl)-1,2,4-triazolo[1,5-c]quinazoline]
147 to 149.5 °C | CCCCc1nc2ccccc2c2nc(-c3cccs3)nn12 [Example 42, 5-n-butyl-2-(2-thienyl)-1,2,4-triazolo[1,5-c]quinazoline]
123 to 124 °C | CCCCc1nc2cccc(F)c2c2nc(-c3ccccc3)nn12 [Example 43, 5-n-butyl-10-fluoro-2-phenyl-1,2,4-triazolo[1,5-c]quinazoline]
129.5 to 132.5 °C | CCCCc1nc2ccc(Br)cc2c2nc(-c3ccccc3)nn12 [Example 47, 9-bromo-5-n-butyl-2-phenyl-1,2,4-triazolo[1,5-c]quinazoline]
150 to 152 °C | CCCCc1nc2cc(OC)c(OC)cc2c2nc(-c3ccccc3)nn12 [Example 48, 5-n-butyl-8,9-dimethoxy-2-phenyl-1,2,4-triazolo[1,5-c]quinazoline]
123 to 124 °C | CCCCc1nc2cccc(C)c2c2nc(-c3ccccc3)nn12 [Example 49, 5-n-butyl-10-methyl-2-phenyl-1,2,4-triazolo[1,5-c]quinazoline]
118 to 119 °C | CCCCc1nc2ccccc2c2nc(-c3cccc(OC)c3)nn12 [Example 57, 5-n-butyl-2-(3-methoxyphenyl)-1,2,4-triazolo[1,5-c]quinazoline]
140.5 to 141.5 °C | CCCCc1nc2ccccc2c2nc(-c3ccc(SC)cc3)nn12 [Example 58, 5-n-butyl-2-(4-methylthiophenyl)-1,2,4-triazolo[1,5-c]quinazoline]
147 to 148 °C | CCc1nc2ccccc2c2nc(-c3ccc(C)cc3)nn12 [Example 69, 5-ethyl-2-(4-methylphenyl)-1,2,4-triazolo[1,5-c]quinazoline]
140.5 to 141.5 °C | CCCc1nc2ccc(Cl)cc2c2nc(-c3ccccc3)nn12 [Example 73, 9-chloro-2-phenyl-5-n-propyl-1,2,4-triazolo[1,5-c]quinazoline]
141 to 143 °C | CCCCc1nc2ccc(Cl)cc2c2nc(-c3ccc(C)cc3)nn12 [Example 77, 5-n-butyl-9-chloro-2-(4-methylphenyl)-1,2,4-triazolo[1,5-c]quinazoline]
147 to 149 °C | CCCc1nc2cc(Cl)ccc2c2nc(-c3ccccc3)nn12 [Example 79, 8-chloro-2-phenyl-5-n-propyl-1,2,4-triazolo[1,5-c]quinazoline]
134 to 134.5 °C | CCCCc1nc2cc(Cl)ccc2c2nc(-c3ccc(C)cc3)nn12 [Example 83, 5-n-butyl-8-chloro-2-(4-methylphenyl)-1,2,4-triazolo[1,5-c]quinazoline]
205.5 to 206 °C | CCCCc1nc2ccc([N+](=O)[O-])cc2c2nc(-c3ccccc3)nn12 [Example 85, 5-n-butyl-9-nitro-2-phenyl-1,2,4-triazolo[1,5-c]quinazoline]
